The text below walks through data of patent US20200255489A1, “Novel Senolytic Peptides” (priority 2017, published 2020).

Where a SMILES comes first, the peptide text is derived from it. [ ]: non-standard residue; d: D form.

The nature of data set [1]: Acute Systemic Toxicity Test (ISO 10993-11). The class given is in vivo, mice (BALB/c). Particulars: BALB/c. The protocol: Senolytic Peptides were evaluated for toxicity according to Acute Sytemic Toxicity Test (ISO 10993-11). This study was performed in strict accordance with the protocol approved by the TUBITAK-MAM Animal Ethics Committee. All the mice used in this study were of a BALB/c background at 8-12 weeks of age. All mice were kept in group housing until the start of the experiment after which they were placed in separate cages (5 mice per cage). The Senolytic Peptide (SEQ ID NO: 11) is administered intravenously using a mice model (BALB/c) at doses of 1, 10, 50 and 100 mg/kg and vehicle alone is also administered using single injections (n=5, per group). Control and Senolytic Peptide (SEQ ID NO: 11) injected mice were sacrificed 24 hours later for pathological examination. […] Blood samples were subsequently collected for determination and analysis of hematological and biochemical parameters. Plasma alanine aminotransferase (ALT), aspartate aminotransferase (AST), alkaline phosphatase (ALP) activities and blood urea, glucose, triglyceride levels were determined, inter alia, full hematological parameters.

Data set [2] relates to senescent and non-senescent IMR90 cells. Kind of data set: XTT viability assay on Doxorubicin induced senescent and non-senescent IMR90 fibroblasts. As to conditions: senescence by 100 NM Doxorubicin, total doses 0 to 100 pM on 3 consecutive days, XTT after 7 days. The class given is cell-based, human. How it is done:
IMR-90 cells (ATCC #CCL-186, a diploid primary human fibroblast adherent cell line derived from fetal lung tissue) were treated with 100 NM Doxorubicin twice every other day for senescence induction. […] Later these cells were used for experiments comparing them to their non-Doxorubicin (non-senescent) treated counterparts. Senescent and non-senescent IMR90 fibroblasts were plated for XTT viability assays. 7000 senescent (obtained as described above) and 2000 non-senescent IMR90 fibroblasts were plated in 96-well plates incubated. The cells were treated with mock (PBS) or the Senolytic Peptide(s) at total doses ranging from 0 to 100 pM. The mock and peptide treatments were carried out for 3 consecutive days (24, 48 and 72 hours) after plating. After treatment period, the cells were incubated for 7 days until XTT-based viability was analyzed according to the manufacturer's instructions. […]
(§1) WI-38 cells (ATCC #CCL-75, a diploid primary human fibroblast adherent cell line derived from fetal lung tissue) and IMR90 cells (ATCC #CCL-186, a diploid primary human fibroblast adherent cell line derived from fetal lung tissue) were treated with a chemotherapy agent, 100 NM Doxorubicin twice every other day to induce senescence. […] After treatment period, the cells were incubated for 7 days until XTT-based viability was analyzed according to the manufacturer's instructions. […]
(Tetrazolium assays rely on reduction of a dye to a coloured formazan, in cell work by metabolically active cells.)

In data set [3] the test system is Doxorubicin induced renal senescence. Kind of data set: Doxorubicin induced chemotoxicity / renal senescence in mice. Particulars: male BALB/c mice, doxorubicin 8 mg/kg i.p. twice. Type of data set: in vivo. How it is done:
This study was performed in strict accordance with the protocol approved by the TUBITAK-MAM Animal Ethics Committee. All the mice used in this study were of a BALB/c background at 8-12 weeks of age. All mice were kept in group housing until the start of the experiment after which they were placed in separate cages (4 mice per cage). Only male mice were used throughout the study. Where feasible, littermates were used. All mice were randomly assigned to experimental group. Mice were fed ad libidum. Initial weights of the mice were recorded. Mice were divided into three groups (A-No Treatment, B-Doxorubicin Treatment+Mock Treatment, C-Doxorubicin Treatment+Senolytic Peptide Treatment). Doxorubicin induced chemotoxicity was used for the induction of renal senescence in mice. Mice in Group B and C were intraperitoneally administered with doxorubicin (8 mg/kg) twice (at 0 and 10th day). Weights of the mice were recorded three times a week. 24 days after 2nd Doxorubicin treatment, PBS (mock Treatment) was administered intravenously to Group B and Senolytic Peptide (SEQ ID NO: 12) (3×10 mg/kg) was administered to Group C in three days (every other day) (FIG. 17A). The mice health, activity and appearance were monitored and they were sacrificed 14 days later. Gross pathology and pathology of the mice analysed. Mice organs and tissues are flash-frozen in liquid nitrogen and embedded in OCT and kept at −80 C. 10 micron thick mid-sagittal cryo-sections of the kidney were taken and SA-B-Gal activity was assayed as in Example 1-3. Doxorubicin induced alopecia and caused weight loss in mice and both conditions are reversed upon the Senolytic Peptide (SEQ ID NO: 12) Treatment (FIG. 17B).

The subject of data set [4] is senescent and non-senescent WI-38 cells. In words: XTT viability assay on Doxorubicin induced senescent and non-senescent WI-38 fibroblasts. Type of data set: cell-based, human. As to conditions: senescence by 100 NM Doxorubicin, total doses 0 to 100 pM on 3 consecutive days, XTT after 7 days. How it is done: WI-38 cells (ATCC #CCL-75, a diploid primary human fibroblast adherent cell line derived from fetal lung tissue) were treated with a chemotherapy agent, 100 NM Doxorubicin twice every other day to induce senescence. […] Later these cells were used for experiments comparing them to their non-Doxorubicin (non-senescent) treated counterparts. Senescent and non-senescent WI-38 fibroblasts were plated for XTT viability assays. 7000 senescent (obtained as described above) and 2000 non-senescent WI-38 fibroblasts were plated in 96-well plates incubated. The cells were treated with mock (PBS) or the Senolytic Peptide (SEQ ID NO: 11) at total doses ranging from 0 to 100 pM. The mock and peptide treatments were carried out for 3 consecutive days (24, 48 and 72 hours) after plating. After treatment period, the cells were incubated for 7 days until XTT-based viability was analyzed according to the manufacturer's instructions. […]
as §1

The mark [5] stands for this setting: peptide 3x10 mg/kg every other day.

For `CC(C)C[C@H](NC(=O)[C@@H](NC(=O)[C@H](CC(C)C)NC(=O)[C@H](CCCNC(=N)N)NC(=O)[C@H](CCCCN)NC(=O)[C@H](CCCNC(=N)N)NC(=O)[C@@H]1CCCN1C(=O)[C@H](C)NC(=O)[C@H](CCCNC(=N)N)NC(=O)[C@H](CCCNC(=N)N)NC(=O)[C@H](CCCNC(=N)N)NC(=O)[C@H](CCCNC(=N)N)NC(=O)[C@H](CCCNC(=N)N)NC(=O)[C@H](CCCNC(=N)N)NC(=O)[C@H](CCCNC(=N)N)NC(=O)[C@H](CCCNC(=N)N)NC(=O)[C@H](CCCNC(=N)N)NC(=O)[C@H](CCCNC(=N)N)NC(=O)[C@H](CCCNC(=N)N)NC(=O)[C@H](CCCNC(=N)N)NC(=O)[C@H](CCCNC(=N)N)NC(=O)[C@H](CCCNC(=N)N)NC(=O)CNC(=O)[C@H](Cc1c[nH]c2ccccc12)NC(=O)[C@H](C)NC(=O)[C@H](CCCNC(=N)N)NC(=O)[C@H](CCCNC(=N)N)NC(=O)[C@H](CCCNC(=N)N)NC(=O)[C@H](CCCNC(=N)N)NC(=O)CNC(=O)CNC(=O)[C@H](CCCCN)NC(=O)[C@H](CCCNC(=N)N)NC(=O)[C@@H]1CCCN1C(=O)[C@H](N)CCCNC(=N)N)[C@@H](C)O)C(=O)O` [SEQ ID NO: 11, dRPRKGGRRRR AWGRRRRRRR RRRRRRRAPR KRLTL] (H-[dR]PRKGGRRRRAWGRRRRRRRRRRRRRRAPRKRLTL-OH), the “toxicity to the physical appearance of the mice” value in data set [1] (single intravenous injection 1, 10, 50 and 100 mg/kg, within 24 hours of injection) is on record as “No toxicity”. The “toxicity by hematological parameters, AST, ALT, ALP levels and gross pathology” value in data set [1] (single intravenous injection, even at 100 mg/kg, 24 hours) is “no toxicity”.
As for “PRKGGSRRRAWGNQRYARLIRQAIESAPEKRLTLA (PRKGGSRRRAWGNQRYARLIRQAIESAPEKRLTLA; Based on Homo sapiens sequence) [SEQ ID NO: 12]”, the “effect on viability of senescent versus non-senescent cells (XTT)” value in data set [2] is “selectively decreased the viability”. In addition, in data set [3] (setting [5]), the Doxorubicin induced alopecia result was “reversed” and the “Doxorubicin induced weight loss” value was “reversed”. In data set [3] (peptide 3x10 mg/kg, sacrificed 14 days later), the “senescent cells in kidneys (SA-B-Gal activity of kidney sections)” value is listed as “cleared senescent cells in kidneys”. Besides, the “effect on viability of senescent versus non-senescent cells (XTT)” value in data set [4] was “selectively decreased the viability”.
